Assay results: patent US5087614A, “Enzyme inhibitor and method of producing the same” (Suntory Limited, priority 1987, dated 1992)
pIC50: −log10 of the molar value. Where a SMILES comes first, the peptide text is derived from it. [ ]: non-standard residue; d: D form. The star is where a group is joined. Sta = CC(C)C[C@H](N)[C@@H](O)CC(=O)O; Isovaleryl = CC(C)CC(=O)*

Biological target: T1, Pepsin (Bos taurus, UniProt P00792)
T1 construct: from tissue; host or cells: bovine pancreas (so in the source)
T1 sequence (P00792 43-372): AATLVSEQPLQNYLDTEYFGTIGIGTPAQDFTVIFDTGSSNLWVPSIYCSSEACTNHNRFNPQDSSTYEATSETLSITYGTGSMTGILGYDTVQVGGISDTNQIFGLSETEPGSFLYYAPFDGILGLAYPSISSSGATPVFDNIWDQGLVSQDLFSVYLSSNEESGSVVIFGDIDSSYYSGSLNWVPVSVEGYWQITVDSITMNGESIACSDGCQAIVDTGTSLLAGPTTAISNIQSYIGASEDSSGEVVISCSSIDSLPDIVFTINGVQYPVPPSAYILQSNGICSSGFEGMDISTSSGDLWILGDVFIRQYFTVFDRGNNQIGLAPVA
Assay: Inhibition against pepsin (hemoglobin degradation, UV absorption at 280 nm)
Format: biochemical, Bovine
Conditions: substrate 2.0% hemoglobin in 0.06N-hydrochloric acid, 35° C., 10 minutes; read-out: IC50 (concentration of the compound required to achieve 50% inhibition)
Description: (a) Inhibition against Pepsin from Bovine Pancreas
To this mixture was added (150-a) μl of 0.06N-hydrochloric acid to adjust the pH value of the mixture to 3 to 5. Each of the solutions was then mixed with a substrate solution to start the reaction. The substrate for the reaction comprised 2.0% hemoglobin in 800 μl of 0.06N-hydrochloric acid and the reaction was conducted at 35° C. for 10 minutes, the total volume of the reaction mixture being 1 ml. 3 ml of 5% trichloroacetic acid was then added to the reaction mixture to terminate the reaction. After the precipitates formed had been filtered off, the amount of protein in the trichloroacetic acid fraction which contained the components of hemoglobin hydrolyzed with pepsin was measured from the value of ultraviolet absorption at 280 nm.

pIC50: 7.74
SMILES: CC(C)CC(=O)N[C@H](C(=O)N[C@H](C(=O)N[C@@H](CC(C)C)[C@@H](O)CC(=O)N[C@@H](C)C(=O)N[C@@H](CC(C)C)[C@@H](O)CC(=O)O)C(C)C)C(C)C [Pepstatin] (Isovaleryl-VV[Sta]A[Sta]-OH)
